Assay results reported in patent US8580711B2, “Decreasing or preventing sub-surface geological matter contamination by agrochemicals” (Yeda Research and Development Co. Ltd., priority 2005, dated 2013).

Columns and labels:
[1] = USGS estimate; cited from earlier work
[2] = cited from earlier work
[3] = batch mode homogeneous catalytic reductive dechlorination of endosulfan in contaminated water, titanium (III) citrate as bulk electron donor; settings: after 72 hours of reaction, about 0.010 mM catalyst, 0.32 ppm endosulfan initially, room temperature
Description: 40 milliliter (0.04 liter) glass vials (usually filled with about 25 milliliters of reaction solution), fitted with Teflon®-clear silicon sealing cups, were used at room temperature (between about 20° C. and about 25° C.) and atmospheric pressure. Contents of each glass vial (batch reactor) were mixed by securing the glass vial onto an orbital shaker (model TS-600, from MRC, Israel) having automatic (mixing) speed control. Multiple replicates of each glass vial (batch reactor) filled with reaction solution were prepared at the beginning of an experiment.
The glass vial batch mode reaction systems were prepared under oxygen free atmosphere conditions, using an anaerobic chamber (Coy Laboratory Products, MI, USA) containing an oxygen free atmosphere composed of a mixture of nitrogen [N2] gas and hydrogen [H2] gas, having a 95/5 molar or partial pressure ratio.
GC/MS was used for monitoring concentration over time, of endosulfan (as α and β isomers) in the endosulfan contaminated water, during the batch mode homogeneous catalytic reactions.
The extracted organic phase was then transferred to a gas chromatograph vial and analyzed for the presence of the endosulfan (as α and β isomers) contaminant.
The reactions were performed at room temperature (between about 20° C. and about 25° C.) and atmospheric pressure.
A volume of 25 milliliter (0.025 liter) was taken from the appropriate stock solution of water contaminated with endosulfan and added to the empty 40 milliliter glass vial (batch reactor), for providing an initial concentration of 0.32 mg endosulfan per liter contaminated water, or 0.32 ppm endosulfan in the contaminated water. This procedure was repeated, for preparing at least two glass vials (batch reactors) for each experiment.
Reducing conditions were not naturally prevalent in the endosulfan contaminated water in the glass vials (batch reactors) for effectively enabling the phenomena, mechanisms, and processes of the electron transfer mediated (homogeneous) catalytic reductive dehalogenation of the endosulfan contaminant in the contaminated water. Thus, reducing conditions in the endosulfan contaminated water were anthropogenically produced by exposing the endosulfan contaminated water to titanium (III) citrate [Ti(OC(CH2COOH)2COOH] as the bulk electron donor or reducing agent, immediately before exposing the endosulfan contaminated water to the catalytically effective amount of each respective above stated metalloporphyrin complex, or metallocorrin complex, electron transfer mediator (homogeneous catalyst).
The pH of the solution was then adjusted to the desired value (e.g., 9.0) by adding small amounts of NaOH concentrated solution to each glass vial (batch reactor).
Then, an appropriate volume was taken from each respective above stated 2 mM metalloporphyrin complex, or metallocorrin complex, stock solution, and added to each glass vial (batch reactor) containing endosulfan contaminated water and titanium (III) citrate, for providing a concentration of about 0.010 mM metalloporphyrin complex, or metallocorrin complex, electron transfer mediator (homogeneous) catalyst in the endosulfan contaminated water. At this point, the glass vials were sealed, and transferred to the orbital shaker.
The contents, i.e., the endosulfan contaminated water containing the titanium (III) citrate as bulk electron donor or reducing agent and the metalloporphyrin complex, or metallocorrin complex, electron transfer mediator (homogeneous) catalyst, in each glass vial (batch reactor), were continuously mixed by securing each glass vial onto the orbital shaker set at a mixing speed of 150 rpm during the entire extent of time or duration of reaction.
For each metalloporphyrin complex, or metallocorrin complex, GC/MS analytical samples were prepared after 72 hours from each of at least two glass vials containing the endosulfan contaminated water of the batch mode homogeneous catalytic reductive dechlorination reaction.

[4] = partitioning (adsorption and desorption) of electron transfer mediators on/off geological matter; type: physicochemical; settings: Montmorillonite clay, room temperature; for Adsorption (%) of (ETM) after 10 days: aqueous mixture; for Desorption (%) of (ETM) after 10 days: fresh water replaced
Description: Montmorillonite clay, 10-12% impurities, was obtained from Fluka.
(§1) 40 milliliter (ml) (0.04 liter) glass vials (filled with 10 milliliters, of solution), were used at room temperature (between about 20° C. and about 25° C.) and atmospheric pressure, as the vessel or container, for containing the aqueous mixtures of the (partitioning) electron transfer mediator (ETM)—geological matter (soil or clay).
(§2) Ultraviolet and visible (UV/VIS) absorption spectrometry was used for measuring and determining the quantity (concentration), after a time period of 10 days each of (ETM) adsorption and desorption, of each (partitioning) electron transfer mediator (ETM) in the aqueous (liquid) phase of each respective electron transfer mediator (ETM)—geological matter (soil or clay) aqueous mixture. Multiple samples of the aqueous (liquid) phase of each mixture were taken from each respective glass vial (partitioning vessel).
(§3) The UV/VIS absorption spectrometer was a Varian, Cary 100, operative according to double beam analysis. Concentrations of the [TBSP-Ni], hematoporphyrin-Cobalt, and vitamin B12, electron transfer mediators (ETMs), were measured at absorption wavelengths of 527 nanometers (nm), 413 nanometers (nm), and 548 nanometers (nm), respectively.
(§4) The electron transfer mediator (ETM)—geological matter (soil or clay) partitioning experiments were performed at room temperature (between about 20° C. and about 25° C.) and atmospheric pressure.
(§5) Each prepared 2 mM metalloporphyrin complex, or metallocorrin complex, (ETM) aqueous stock solution, was diluted by a ratio of 1/10 or 1/100 with the distilled deionized filtered water, for forming respective diluted (ETM) stock solutions.
(§6) For each diluted (ETM) stock solution, corresponding to each respective electron transfer mediator (ETM), an amount of each type of geological matter, i.e., Bet Dagan soil, kaolinite clay, and montmorillonite clay, was weighed, and added to a separate glass vial (partitioning vessel). (ETM) Control solutions remained absent of any geological matter. […]
(§7) The ‘adsorption mode’ analytical samples were then analyzed by the above described (UV/VIS) absorption spectrometry procedure, for determining the quantity (concentration) of the [TBSP-Ni], hematoporphyrin-Cobalt, and vitamin B12, electron transfer mediator (ETM), present (i.e., remaining) in the aqueous (liquid) phase of each respective electron transfer mediator (ETM)—geological matter (soil or clay) aqueous mixture. Such analysis and determination corresponded to quantitatively measuring and determining the extent that the respective electron transfer mediator (ETM) left the aqueous (liquid) phase and ‘adsorbed’ onto the respective geological matter (soil or clay) (solid) phase. The (ETM) Control solutions were similarly analyzed. […]

[5] = as above; type: physicochemical; settings: Bet Dagan soil, room temperature; for Adsorption (%) of (ETM) after 10 days: aqueous mixture; for Desorption (%) of (ETM) after 10 days: fresh water replaced
Description: Bet Dagan soil was obtained from the site of the Bet Dagan Agricultural Research Organization campus, Bet Dagan, Israel. The Bet Dagan soil was sieved to a size of 60 mesh, and maintained in a dry air environment until use.
as §1, §2, §3, §4, §5, §6
The ‘adsorption mode’ analytical samples were then analyzed by the above described (UV/VIS) absorption spectrometry procedure, for determining the quantity (concentration) of the [TBSP-Ni], hematoporphyrin-Cobalt, and vitamin B12, electron transfer mediator (ETM), present (i.e., remaining) in the aqueous (liquid) phase of each respective electron transfer mediator (ETM)—geological matter (soil or clay) aqueous mixture. […]

[6] = as above; type: physicochemical; settings: Kaolinite clay, room temperature; for Adsorption (%) of (ETM) after 10 days: aqueous mixture; for Desorption (%) of (ETM) after 10 days: fresh water replaced
Description: Kaolinite clay, ‘purum, natural’ grade, was obtained from Fluka.
as §1, §2, §3, §4, §5, §6, §7

Compound | Normalized Endosulfan Concentration (%) α isomer [3] [%] | Normalized Endosulfan Concentration (%) β isomer [3] [%] | other results
CCNc1nc(Cl)nc(NC(C)C)n1 [Atrazine, atrazine] |  |  | persistence in deep lakes [1]: exceed 10 years
Clc1ccc(C(c2ccc(Cl)cc2)C(Cl)(Cl)Cl)cc1 [DDT, DichloroDiphenylTrichloroethane] |  |  | partition coefficient, Kd, relative to aldicarb ([2]; ratio DDT / aldicarb): roughly 20,000 times; partition coefficient, Kd, relative to atrazine ([2]; ratio DDT / atrazine): ~1,500 times
C=Cc1c(C)c2cc3[nH]c(cc4nc(cc5nc(cc1[nH]2)C(C)=C5CCC(=O)[O-])C(CCC(=O)[O-])=C4C)c(C)c3C=C.[Co+2] [Protoporphyrin IX-Co, protoporphyrin IX-Cobalt] | 31.5 | 37.8 | 
O=S(=O)(O)c1ccc(-c2c3nc(c(-c4ccc(S(=O)(=O)O)cc4)c4ccc([nH]4)c(-c4ccc(S(=O)(=O)O)cc4)c4nc(c(-c5ccc(S(=O)(=O)O)cc5)c5ccc2[nH]5)C=C4)C=C3)cc1.[Co] [[TBSP—Co], 4,4′,4″,4′″-(porphine-5,10,15,20-tetrayl)tetrakis(benzenesulfonic acid)-Cobalt] | 2.8 | 0.0 | 
O=S(=O)(O)c1ccc(-c2c3nc(c(-c4ccc(S(=O)(=O)O)cc4)c4ccc([nH]4)c(-c4ccc(S(=O)(=O)O)cc4)c4nc(c(-c5ccc(S(=O)(=O)O)cc5)c5ccc2[nH]5)C=C4)C=C3)cc1.[Ni] [[TBSP—Ni], 4,4′,4″,4′″-(porphine-5,10,15,20-tetrayl)tetrakis(benzenesulfonic acid)-Nickel] | 1.3 | 0.0 | Adsorption (%) of (ETM) after 10 days [4]: 95.50 ± 0.44%; Desorption (%) of (ETM) after 10 days [4]: 8.57 ± 1.28%; Adsorption (%) of (ETM) after 10 days [5]: 71.68 ± 2.31%; Desorption (%) of (ETM) after 10 days [5]: 21.22 ± 2.55%; Adsorption (%) of (ETM) after 10 days [6]: 59.44 ± 1.21%; Desorption (%) of (ETM) after 10 days [6]: 40.17 ± 5.51%
C[n+]1ccc(-c2c3nc(c(-c4cc[n+](C)cc4)c4ccc([n-]4)c(-c4cc[n+](C)cc4)c4nc(c(-c5cc[n+](C)cc5)c5ccc2[n-]5)C=C4)C=C3)cc1.[Co+2] [[TMPyP—Co], tetramethylpyridilporphyrin-Cobalt [5,10,15,20-tetrakis(1-methyl-4-pyridinio)-porphine-Cobalt]] | 1.2 | 0.0 | 
C[n+]1ccc(-c2c3nc(c(-c4cc[n+](C)cc4)c4ccc([n-]4)c(-c4cc[n+](C)cc4)c4nc(c(-c5cc[n+](C)cc5)c5ccc2[n-]5)C=C4)C=C3)cc1.[Fe+2] [[TMPyP—Fe], tetramethylpyridilporphyrin-Iron [5,10,15,20-tetrakis(1-methyl-4-pyridinio)-porphine-Iron]] | 40.7 | 66.7 | 
C[n+]1ccc(-c2c3nc(c(-c4cc[n+](C)cc4)c4ccc([n-]4)c(-c4cc[n+](C)cc4)c4nc(c(-c5cc[n+](C)cc5)c5ccc2[n-]5)C=C4)C=C3)cc1.[Ni+2] [[TMPyP—Ni], tetramethylpyridilporphyrin-Nickel [5,10,15,20-tetrakis(1-methyl-4-pyridinio)-porphine-Nickel]] | 0.0 | 0.0 | 
Oc1ccc(-c2c3nc(c(-c4ccc(O)cc4)c4ccc([n-]4)c(-c4ccc(O)cc4)c4nc(c(-c5ccc(O)cc5)c5ccc2[n-]5)C=C4)C=C3)cc1.[Co+2] [[TP(OH)P—Co], tetrahydroxyphenylporphyrine-Cobalt [5,10,15,20-tetrakis(4-hydroxyphenyl)-21H,23H-porphine-Cobalt]] | 8.3 | 12.3 | 
Oc1ccc(-c2c3nc(c(-c4ccc(O)cc4)c4ccc([n-]4)c(-c4ccc(O)cc4)c4nc(c(-c5ccc(O)cc5)c5ccc2[n-]5)C=C4)C=C3)cc1.[Ni+2] [[TP(OH)P—Ni], tetrahydroxyphenylporphyrine-Nickel [5,10,15,20-tetrakis(4-hydroxyphenyl)-21H,23H-porphine-Nickel]] | 8.3 | 9.3 | 
hematoporphyrin-Cobalt | 9.4 | 9.7 | Adsorption (%) of (ETM) after 10 days [4]: 100%; Desorption (%) of (ETM) after 10 days [4]: 0%; Adsorption (%) of (ETM) after 10 days [5]: 12.80 ± 1.2%; Desorption (%) of (ETM) after 10 days [5]: 5.87 ± 0.32%; Adsorption (%) of (ETM) after 10 days [6]: 45.28 ± 1.85%; Desorption (%) of (ETM) after 10 days [6]: 12.65 ± 0.67%
